Among the data in ChEMBL document CHEMBL1781967, “1-[4-(N-Benzylamino)phenyl]-3-phenylurea derivatives as a new class of hypoxia-inducible factor-1alpha inhibitors” (Bioorg Med Chem Lett, 2009) are IC50, Activity and inhibition values, retold here.

Each structure is given as a SMILES string. Active and inactive are the calls of the source. The calls are words filed in the database; no cut-off is given here.

For orientation: IC50 means the concentration that inhibits the measured activity by half.

For assay [1], the target named is T1, Hypoxia-inducible factor 1-alpha (Homo sapiens, UniProt Q16665). Kind of assay: Inhibition of hypoxia-induced HIF1alpha transcriptional activity in HEK293 cells incubated for 16 hrs by hypoxia response element-driven luciferase reporter gene assay. Type of assay: cell-based. For orientation: In a reporter assay the amount or activity of a reporter protein is the signal.
Target sequence in this assay (Q16665 whole entry): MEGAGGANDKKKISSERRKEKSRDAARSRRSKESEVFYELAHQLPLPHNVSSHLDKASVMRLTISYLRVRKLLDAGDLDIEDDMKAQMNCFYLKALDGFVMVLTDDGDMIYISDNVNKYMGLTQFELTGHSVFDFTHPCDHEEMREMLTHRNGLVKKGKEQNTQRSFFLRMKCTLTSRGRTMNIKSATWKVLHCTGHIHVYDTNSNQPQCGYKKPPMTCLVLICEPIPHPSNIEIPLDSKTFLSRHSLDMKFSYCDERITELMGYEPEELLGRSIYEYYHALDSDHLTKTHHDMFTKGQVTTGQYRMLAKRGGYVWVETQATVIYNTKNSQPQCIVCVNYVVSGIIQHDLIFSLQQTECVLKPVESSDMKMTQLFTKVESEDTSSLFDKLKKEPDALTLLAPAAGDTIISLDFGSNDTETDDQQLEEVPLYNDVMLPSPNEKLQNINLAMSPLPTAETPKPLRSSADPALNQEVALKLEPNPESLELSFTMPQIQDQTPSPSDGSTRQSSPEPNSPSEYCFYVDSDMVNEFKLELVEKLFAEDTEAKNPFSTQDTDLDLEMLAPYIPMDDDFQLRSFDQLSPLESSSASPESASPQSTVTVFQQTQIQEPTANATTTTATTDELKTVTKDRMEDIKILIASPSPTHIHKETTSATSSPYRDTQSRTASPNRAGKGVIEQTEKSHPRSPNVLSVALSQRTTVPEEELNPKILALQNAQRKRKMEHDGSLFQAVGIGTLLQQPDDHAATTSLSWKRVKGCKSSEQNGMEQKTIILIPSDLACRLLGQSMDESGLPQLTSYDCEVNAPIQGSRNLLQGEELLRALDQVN

In assay [2] the test system is HeLa. Briefly: Effect on HIF1alpha mRNA expression in human HeLa cells incubated for 2 hrs under hypoxic conditions by RT-PCR. The assay is classed as functional, cell-based.
The test system of assay [3] is HeLa. Briefly: Effect on HIF1beta protein level in human HeLa cells incubated for 4 hrs under hypoxic conditions by Western blot.
The target of assay [4] is T1, Hypoxia-inducible factor 1-alpha. Briefly: Inhibition of HIF1alpha accumulation in human HeLa cells incubated for 4 hrs under hypoxic conditions by Western blot. Type of assay: cell-based. (In general: In western blotting, separated proteins are transferred to a membrane and probed.)
Target sequence in this assay (Q16665 whole entry, looked up): as the sequence (Q16665 whole entry) above
For assay [5], the system named is HeLa. Kind of assay: Inhibition of hypoxia-induced VEGF secretion in human HeLa cells incubated for 12 hrs under hypoxic conditions by ELISA. The assay is classed as functional, cell-based. For orientation: In an ELISA, binding on a coated surface is turned into a signal by an enzyme label.

Molecule `COc1ccc(CNc2ccc(NC(=O)Nc3ccccc3)cc2)cc1` yielded a 50% inhibitory concentration (IC50) in assay [1] of 23 µM.
On to `COC(=O)c1cccc(CNc2ccc(NC(=O)Nc3ccccc3)cc2)c1`, for which the 50% inhibitory concentration (IC50) in assay [1] was 7.21 µM; with HeLa [5], 15 µM. The result with HeLa [2] and in the assay on HeLa [3] was inactive. The inhibition result (in assay [4]; in the assay with HeLa [5]) was “Dose-dependent effect” each time.
In assay [1], `COc1cccc(CNc2ccc(NC(=O)Nc3ccccc3)cc2)c1` registered an IC50 of 52.1 µM.
The molecule `O=C(Nc1ccccc1)Nc1ccc(NCc2ccccc2C(=O)O)cc1` returned an IC50 in assay [1] of 51.7 µM.
On the same count and under the same terms, then `COC(=O)c1ccccc1CNc1ccc(NC(=O)Nc2ccccc2)cc1`, with 32.5 µM; and `O=C(Nc1ccccc1)Nc1ccc(NCc2ccc(C(=O)O)cc2)cc1`, with over 100 µM; and `O=C(Nc1ccccc1)Nc1ccc(NCc2cccc(O)c2)cc1`, with 69.9 µM.
In assay [1], `O=C(Nc1ccccc1)Nc1ccc(NCc2ccc(O)cc2)cc1` showed a 50% inhibitory concentration (IC50) of 35.5 µM.
As to `COC(=O)c1cc(CNc2ccc(NC(=O)Nc3ccccc3)cc2)cc(C(=O)OC)c1`, the IC50 in assay [1] stood at 15.1 µM.
On the same count and under the same terms, then `COc1cc(CNc2ccc(NC(=O)Nc3ccccc3)cc2)cc(OC)c1`, with 18.7 µM.
In assay [1], `COC(=O)c1ccc(CNc2ccc(NC(=O)Nc3ccccc3)cc2)cc1` had an IC50 of over 100 µM.
On to `COc1ccc(OC)c(CNc2ccc(NC(=O)Nc3ccccc3)cc2)c1`, for which the concentration for half-maximal inhibition (IC50) in assay [1] was 29.6 µM.
Regarding `O=C(Nc1ccccc1)Nc1ccc(NCc2cccc(C(=O)O)c2)cc1`, it took 41.6 µM to reach half-maximal inhibition in assay [1] (IC50).
In turn, `COC(=O)c1ccc(OC)c(CNc2ccc(NC(=O)Nc3ccccc3)cc2)c1` showed an IC50 in assay [1] of 22.1 µM.
Molecule `COc1ccccc1CNc1ccc(NC(=O)Nc2ccccc2)cc1` showed an IC50 in assay [1] of 17.4 µM.
Regarding `COc1cccc(OC)c1CNc1ccc(NC(=O)Nc2ccccc2)cc1`, 39.1 µM corresponded to half-maximal inhibition in assay [1] (IC50).
In assay [1], `O=C(Nc1ccccc1)Nc1ccc(NCc2ccccc2O)cc1` yielded an IC50 of 32.7 µM.
As to `COc1cccc(CNc2ccc(NC(=O)Nc3ccccc3)cc2)c1OC`, it took 8.62 µM to reach half-maximal inhibition in assay [1] (IC50).
